Experimental data taken from paper PMC6895048, “4,5-Disubstituted 1,2,3-triazoles: Effective Inhibition of Indoleamine 2,3-Dioxygenase 1 Enzyme Regulates T cell Activity and Mitigates Tumor Growth” (Scientific Reports, 2019).

Tests used:
IDO1 [1] = target: T1, IDO1 (Homo sapiens, UniProt P14902); experiment: Kynurenine assay by HPLC analysis, IDO1; assay type: biochemical; design: made in house; host or cells: Escherichia coli M15 (pQE30 vector with pREP4 plasmid)
Protocol: (§1) HPLC based IDO1, and TDO inhibition assays were performed according to the earlier reported procedure[19],[27]–[30]. The reaction mixture (250 µL) contained KPB (100 mM, pH 6.5 for IDO1 and 50 mM, pH 8.0 for TDO), sodium ascorbate (20 mM), methylene blue (10 µM), catalase (240 nM, from bovine liver, Sigma), L-Trp (150 µM), purified enzyme (40 nM for IDO1 and 25 nM for TDO), DMSO (0.05%, v/v), Triton-X 100 (0.01%, v/v) and inhibitors. The concentration of the compound was varied from 100 µM to 32 nM by serial dilution. The mixture was incubated at 37 °C for 1 hour in the absence and presence of the synthesized compounds. The reaction was then quenched using 50 µL of 30% (w/v) trichloroacetic acid and incubated at 65 °C for additional 15 minutes to allow complete hydrolysis of N-formylkynurenine to kynurenine. After that, the mixture was centrifuged at 10,000 rpm for 10 minutes, and 100 µL of clear solution was transferred to another tube for HPLC analysis. Then, 20 µL of the reaction mixture was then injected through Ascentis® express C18, 2.7 µm HPLC column with a flow rate of 0.5 mL/minute of the mobile phase containing 50% sodium citrate buffer (40 mM, pH 2.25) and 50% methanol (v/v) with 400 µM SDS. The area under the curve at 365 nm chromatogram corresponding to the kynurenine formation was recorded, and % of inhibition was calculated using standard curve prepared with pure kynurenine (from Sigma) under similar experimental conditions.

TDO enzyme = target: T2, TDO enzyme (Homo sapiens, UniProt P48775); experiment: HPLC based TDO inhibition assay; assay type: biochemical
T2 construct: 6xHis (N); made in house; host or cells: Escherichia coli BL21 (DE3) (pET 28a vector)
T2 sequence (P48775 whole entry): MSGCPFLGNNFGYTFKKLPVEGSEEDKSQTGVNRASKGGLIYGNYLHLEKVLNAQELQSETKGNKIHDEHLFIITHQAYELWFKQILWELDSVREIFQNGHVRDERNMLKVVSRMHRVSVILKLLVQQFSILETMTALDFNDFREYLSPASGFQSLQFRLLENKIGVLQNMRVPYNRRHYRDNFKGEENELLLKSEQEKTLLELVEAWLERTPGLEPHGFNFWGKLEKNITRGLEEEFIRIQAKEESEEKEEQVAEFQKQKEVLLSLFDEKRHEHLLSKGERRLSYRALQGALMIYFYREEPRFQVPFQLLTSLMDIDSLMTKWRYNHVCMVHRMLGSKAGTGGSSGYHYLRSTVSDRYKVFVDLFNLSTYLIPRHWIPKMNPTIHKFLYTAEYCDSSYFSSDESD
Protocol: as §1

[2] = target: T3, purified human TDO enzyme (Homo sapiens, UniProt P48775); experiment: TDO inhibition assay by the spectrometric method; assay type: biochemical; settings: for inhibitory efficacies against TDO enzyme: both spectrophotometric and kynurenine assay
T3 construct: 6xHis (N); made in house; host or cells: Escherichia coli BL21 (DE3) (pET 28a vector)
T3 sequence (P48775 whole entry): as above
Outline: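 Purified enzyme (IDO1 40 nM in 100 mM KPB pH 6.5; TDO 25 nM in 50 mM KPB pH 8.0) was run with 150 µM L-Trp, ascorbate, methylene blue and catalase at 37 °C for 1 h. Inhibitors were tested from 100 µM to 32 nM. After TCA quench, kynurenine was read with pDMAB at 480 nm.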

IDO1 [3] = target: T1, IDO1; experiment: Equilibrium surface plasmon resonance (SPR) analysis; assay type: binding; design: made in house; host or cells: Escherichia coli M15 (pQE30 vector with pREP4 plasmid); settings: PBS buffer pH 7.4, triplicate
Protocol: The surface plasmon resonance (SPR) analysis was carried out according to the reported procedure with minor modifications[34],[52]. In brief, the measurements were performed at 25 °C on the Biacore-X100 instrument using CM5 sensor chip (GE Healthcare). PBS buffer at pH 7.4 was used as running buffer. The surface of the CM5 sensor chip was first modified with Anti-His Antibody using amine-coupling kit at a flow rate of 30 µL/ minute, followed by IDO1 enzyme (30 µg/mL) immobilization using His-capture kit at a flow rate of 10 µL/minute for 2 minutes. The IDO1 enzyme capture level was 4000 response units (RU). The binding efficacy (association constant; ka) of the compounds was determined by measuring the change in RU of the SPR sensorgram in absence or presence of the compounds (0 to 50 µM).
Figure S1. Measurements of compound binding affinity of the human IDO1 enzyme by […]
equilibrium SPR analysis.
(D), respectively injected over the biosensor chip surface-immobilized with IDO-1 protein are indicated. PBS buffer at pH 7.4 was used for all measurements. Binding isotherm was generated from the Req (average of triplicate measurements) versus the concentration of […] plot. Kd values determined by nonlinear least-squares analysis of the isotherm using the following equation: Req = Rmax/(1 + Kd/P).
Table S3. IDO1 binding affinity of various compounds determined from equilibrium SPR […]
(1 picture or pasted object on this page, not shown here)

[4] = HPLC based IDO1 inhibition assay

T1 sequence (P14902 whole entry): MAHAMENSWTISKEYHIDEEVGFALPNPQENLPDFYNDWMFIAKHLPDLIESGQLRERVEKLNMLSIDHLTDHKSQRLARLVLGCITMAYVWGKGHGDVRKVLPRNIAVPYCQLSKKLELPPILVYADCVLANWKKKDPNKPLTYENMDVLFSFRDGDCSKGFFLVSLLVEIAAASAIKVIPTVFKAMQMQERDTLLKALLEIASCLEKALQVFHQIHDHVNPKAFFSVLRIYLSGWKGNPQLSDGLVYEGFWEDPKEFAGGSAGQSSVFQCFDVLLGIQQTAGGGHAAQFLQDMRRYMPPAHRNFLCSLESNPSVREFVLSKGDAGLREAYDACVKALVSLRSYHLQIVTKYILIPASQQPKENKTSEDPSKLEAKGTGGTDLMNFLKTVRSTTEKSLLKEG

SMILES | IC50 (IDO1 [1]; [4]) [nM] | inhibitory efficacies against TDO enzyme [2] | Kd (IDO1 [3]) [nM] | % Of inhibition for IDO1 enzyme (IDO1 [1]; HPLC, 32 nM) [%] | % Of inhibition for IDO1 enzyme (IDO1 [1]; HPLC, 160 nM) [%] | % Of inhibition for IDO1 enzyme (IDO1 [1]; HPLC, 800 nM) [%] | % Of inhibition for IDO1 enzyme (IDO1 [1]; HPLC, 4 µM) [%] | % Of inhibition for IDO1 enzyme (IDO1 [1]; HPLC, 20 µM) [%] | % Of inhibition for IDO1 enzyme (IDO1 [1]; HPLC, 100 µM) [%] | % Of inhibition for TDO enzyme (TDO enzyme; 32 nM) [%] | % Of inhibition for TDO enzyme (TDO enzyme; 160 nM) [%] | % Of inhibition for TDO enzyme (TDO enzyme; 800 nM) [%] | % Of inhibition for TDO enzyme (TDO enzyme; 4 µM) [%] | % Of inhibition for TDO enzyme (TDO enzyme; 20 µM) [%] | % Of inhibition for TDO enzyme (TDO enzyme; 100 µM) [%] | % of Enzyme inhibition (TDO) ([2]; spectrophotometric, 32 nM) [%] | % of Enzyme inhibition (TDO) ([2]; spectrophotometric, 160 nM) [%] | % of Enzyme inhibition (TDO) ([2]; spectrophotometric, 800 nM) [%] | % of Enzyme inhibition (TDO) ([2]; spectrophotometric, 4 µM) [%] | % of Enzyme inhibition (TDO) ([2]; spectrophotometric, 20 µM) [%] | other results
NS(=O)(=O)NCCNC(=O)c1n[nH]nc1-c1ccc(F)c(F)c1 [Compound 4k] | 59 ± 6 | moderate to poor | 49100 ± 8510 |  |  |  |  |  |  |  |  |  |  |  |  |  |  |  |  |  | inhibition at 0.032 µM (IDO1 [1]; HPLC, 32 nM): 14%; inhibition at 0.16 µM (IDO1 [1]; HPLC, 160 nM): 45%; inhibition at 0.8 µM (IDO1 [1]; HPLC, 800 nM): 69%; inhibition at 4 µM (IDO1 [1]; HPLC, 4 µM): 77%; inhibition at 20 µM (IDO1 [1]; HPLC, 20 µM): 86%; inhibition at 100 µM (IDO1 [1]; HPLC, 100 µM): 84%; IC50 (IDO1 [1]; kynurenine assay): 60 to 115 nM; inhibition at 0.032 µM (TDO enzyme; 32 nM): 13%; inhibition at 0.16 µM (TDO enzyme; 160 nM): 24%; inhibition at 0.8 µM (TDO enzyme; 800 nM): 46%; inhibition at 4 µM (TDO enzyme; 4 µM): 58%; inhibition at 20 µM (TDO enzyme; 20 µM): 63%; inhibition at 100 µM (TDO enzyme; 100 µM): 68%; inhibition at 0.032 µM ([2]; spectrophotometric, 32 nM): 3%; inhibition at 0.16 µM ([2]; spectrophotometric, 160 nM): 6%; inhibition at 0.8 µM ([2]; spectrophotometric, 800 nM): 16%; inhibition at 4 µM ([2]; spectrophotometric, 4 µM): 32%; inhibition at 20 µM ([2]; spectrophotometric, 20 µM): 45%; inhibition at 100 µM ([2]; spectrophotometric, 100 µM): 50%
NC(=O)c1n[nH]nc1-c1ccc(F)c(F)c1 [Compound 3i] | 119 ± 13 | moderate to poor | 34500 ± 5200 | 27 | 48 | 69 | 76 | 84 | 83 | 10 | 18 | 21 | 18 | 37 | 52 | 5 | 11 | 14 | 26 | 33 | % of Enzyme inhibition (TDO) ([2]; spectrophotometric, 100 µM): 49%
CCOC(=O)c1n[nH]nc1-c1ccc(F)c(F)c1 [Compound 2i] | 396 ± 10 | moderate to poor | 61700 ± 6070 | 21 | 29 | 59 | 60 | 78 | 80 | 34 | 47 | 49 | 65 | 63 | 83 | 2 | 9 | 12 | 15 | 23 | % of Enzyme inhibition (TDO) ([2]; spectrophotometric, 100 µM): 28%
O=C(N/C(Cc1ccc(O)cc1)=N\O)c1n[nH]nc1-c1ccc(F)c(F)c1 [Compound 4i] | 114 ± 10 | moderate to poor | 40200 ± 4990 | 13 | 34 | 52 | 68 | 79 | 84 | 15 | 25 | 26 | 50 | 66 | 73 | 4 | 7 | 14 | 24 | 42 | IC50 (IDO1 [1]; kynurenine assay): 60 to 115 nM; % of Enzyme inhibition (TDO) ([2]; spectrophotometric, 100 µM): 55%
